The test system of test [1] is IL-17A-induced G-CSF production in human normal keratinocyte (NHK). The test can be described thus: NHK assay: IL-17A-induced G-CSF production in normal human keratinocytes. The format is cell-based. The following applies: 24 h, IL-17A 5 ng/mL, average if tested more than once. A digest of the protocol:
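Compound titrations are first mixed with recombinant human IL-17A for 1 h at room temperature. The mixture goes onto adult normal human keratinocytes (final IL-17A 5 ng/mL, 5% FBS, 0.2% DMSO) for 24 h at 37 °C. Secreted G-CSF is then measured by HTRF and IC50 fitted.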

Test [2] has as its target T1, IL-17A : IL-17RA binding (Homo sapiens, UniProt Q16552, K93Q).
T1 construct: Name: IL-17A-Flag
The test can be described thus: IL-17A(FLAG-tagged):IL-17RA(His-tagged) binding disruption Eu-HTRF assay, Protocol 1. The following applies: FLAG-IL-17A 2.5 nM at 2x final concentration; average if tested more than once. A digest of the protocol: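 IC50 came from a one-site competition fit of the acceptor/donor (665/620 nm) HTRF ratio. His-tagged IL-17RA, Eu-anti-FLAG and D2-anti-His were added after a 1 h rt compound preincubation with FLAG-tagged IL-17A dimer in PBS/0.01% Triton X-100, followed by 2 h at rt before reading.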
A general note: TR-FRET usually uses a lanthanide donor and a delayed reading to cut background.

For 18 compounds, IC50 results are on record in patent publication US20240376085A1 (Janssen Pharmaceutica NV, priority 2021, published 2024).

Usually IC50 stands for the concentration needed to halve the response being measured. Low values mean inhibition by little substance, high ones a need for much substance.

T1 sequence (Q16552 with tags, fused parts or gaps K93Q): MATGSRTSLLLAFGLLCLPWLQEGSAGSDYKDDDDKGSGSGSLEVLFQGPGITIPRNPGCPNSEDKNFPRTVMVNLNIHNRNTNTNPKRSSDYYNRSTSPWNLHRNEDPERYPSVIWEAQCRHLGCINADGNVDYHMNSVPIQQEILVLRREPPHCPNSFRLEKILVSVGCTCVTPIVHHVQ

In the case of `C[C@@H](NC(=O)CCC(F)(F)F)c1ccc2[nH]c([C@@H](NC(=O)c3cn(CC4CCC4)nc3C#N)C3CCC(F)(F)CC3)nc2c1` [Example 88, 3-Cyano-1-(cyclobutylmethyl)-N—((S)-(4,4-difluorocyclohexyl)(5-((R)-1-(4,4,4-trifluorobutanamido)ethyl)-1H-benzo[d]imidazol-2-yl)methyl)-1H-pyrazole-4-carboxamide], the IC50 in test [1] (Homo sapiens, Keratinocyte) was > 0.1 µM; in test [2], > 0.1 µM.

`CC(C)n1nccc1C(=O)N[C@H](c1nc2ccc([C@H](NC(=O)CC3CC(F)(F)C3)C3CC3)cc2[nH]1)[C@@H]1C[C@@H]2[C@H](C1)C2(F)F` [Example 238, N—((S)-(6-((R)-Cyclopropyl(2-(3,3-difluorocyclobutyl)acetamido)methyl)-1H-benzo[d]imidazol-2-yl)((1R,3s,5S)-6,6-difluorobicyclo[3.1.0]hexan-3-yl)methyl)-1-isopropyl-1H-pyrazole-5-carboxamide]: the half-inhibitory concentration (IC50) in test [1] (Homo sapiens, Keratinocyte) is < 0.05 µM; in test [2] it was < 0.05 µM.

With `C[C@@H](NC(=O)CCC(F)(F)F)c1ccc2nc([C@@H](NC(=O)c3ccnn3CCC(F)(F)F)C3CCC(F)(F)CC3)[nH]c2c1` [Example 121, N—((S)-(4,4-Difluorocyclohexyl)(6-((R)-1-(4,4,4-trifluorobutanamido)ethyl)-1H-benzo[d]imidazol-2-yl)methyl)-1-(3,3,3-trifluoropropyl)-1H-pyrazole-5-carboxamide], the IC50 in test [1] (Homo sapiens, Keratinocyte) is < 0.05 µM; in test [2], > 0.1 µM.

Consider `C[C@@H](NC(=O)CCC(F)(F)F)c1ccc2[nH]c([C@@H](NC(=O)[C@@H]3C[C@H]3C#N)C3CCC(F)(F)CC3)nc2c1` (relative stereo) [Example 104, trans-(1R*,2R*)-2-Cyano-N—((S)-(4,4-difluorocyclohexyl)(5-((R)-1-(4,4,4-trifluorobutanamido)ethyl)-1H-benzo[d]imidazol-2-yl)methyl)cyclopropane-1-carboxamide], for which the IC50 in test [1] (Homo sapiens, Keratinocyte) was > 0.1 µM; in test [2], > 0.1 µM.

For the compound `C[C@@H](NC(=O)CCC(F)(F)F)c1ccc2[nH]c([C@@H](NC(=O)c3cnc4n3CCC4)C3CCC(F)(F)CC3)nc2c1` [Example 211, N—((S)-(4,4-Difluorocyclohexyl)(5-((R)-1-(4,4,4-trifluorobutanamido)ethyl)-1H-benzo[d]imidazol-2-yl)methyl)-6,7-dihydro-5H-pyrrolo[1,2-a]imidazole-3-carboxamide], the IC50 in test [1] (Homo sapiens, Keratinocyte) is > 0.1 µM; in test [2], > 0.1 µM.

Turning to `C[C@@H](NC(=O)CCC(F)(F)F)c1ccc2nc([C@@H](NC(=O)c3cnn(C)c3C(F)(F)F)C3CCC(F)(F)CC3)[nH]c2c1` [Example 58, N—((S)-(4,4-Difluorocyclohexyl)(6-((R)-1-(4,4,4-trifluorobutanamido)ethyl)-1H-benzo[d]imidazol-2-yl)methyl)-1-methyl-5-(trifluoromethyl)-1H-pyrazole-4-carboxamide], the IC50 in test [1] (Homo sapiens, Keratinocyte) was > 0.1 µM; in test [2], > 0.1 µM.

Regarding `CC(CC(=O)N[C@H](C)c1ccc2nc([C@@H](NC(=O)c3cc(F)ccc3F)C3CCC(F)(F)CC3)[nH]c2c1)C(F)(F)F` (single isomer, unassigned) [Example 136, N—((S)-(4,4-Difluorocyclohexyl)(6-((R)-1-((R*)-4,4,4-trifluoro-3-methylbutanamido)ethyl)-1H-benzo[d]imidazol-2-yl)methyl)-2,5-difluorobenzamide], the IC50 in test [1] (Homo sapiens, Keratinocyte) is > 0.1 µM; in test [2] it was > 0.1 µM.

Consider `C[C@H](OCC(NC(=O)c1nonc1C1CC1)c1nc2ccc([C@H](NC(=O)CC3CC(F)(F)C3)C3CC3)cc2[nH]1)C(F)(F)F` (single isomer, unassigned) [Example 154, 4-Cyclopropyl-N—((R*)-1-(6-((R)-cyclopropyl(2-(3,3-difluorocyclobutyl)acetamido)methyl)-1H-benzo[d]imidazol-2-yl)-2-(((S)-1,1,1-trifluoropropan-2-yl)oxy)ethyl)-1,2,5-oxadiazole-3-carboxamide], for which the half-inhibitory concentration (IC50) in test [1] (Homo sapiens, Keratinocyte) was 0.05 to 0.1 µM; in test [2], < 0.05 µM.

As for `CC(C)n1cnc(C(=O)N[C@H](c2nc3cc([C@@H](C)NC(=O)CCC(F)(F)F)ccc3[nH]2)C2CCC(F)(F)CC2)n1` [Example 39, N—[(S)-(4,4-Difluorocyclohexyl)-[6-[(1R)-1-(4,4,4-trifluorobutanoylamino)ethyl]-1H-benzimidazol-2-yl]methyl]-1-isopropyl-1,2,4-triazole-3-carboxamide], the IC50 is > 0.1 µM in test [1] (Homo sapiens, Keratinocyte) and > 0.1 µM in test [2].

In the case of `CCc1nonc1C(=O)NC(CC(C)(C)C(F)(F)F)c1nc2cc([C@@H](C)NC(=O)CCC(F)(F)F)ccc2[nH]1` (single isomer, unassigned) [Example 197, 4-Ethyl-N—((S*)-4,4,4-trifluoro-3,3-dimethyl-1-(5-((R)-1-(4,4,4-trifluorobutanamido)ethyl)-1H-benzo[d]imidazol-2-yl)butyl)-1,2,5-oxadiazole-3-carboxamide], the IC50 in test [1] (Homo sapiens, Keratinocyte) was 0.05 to 0.1 µM; in test [2], < 0.05 µM.

Turning to `CC(C)n1nccc1C(=O)N[C@H](c1nc2cc([C@@H](C)NC(=O)CC(C(F)(F)F)C(F)(F)F)ccc2[nH]1)C1CCC(F)(F)CC1` [Example 125, N—((S)-(4,4-Difluorocyclohexyl)(5-((R)-1-(4,4,4-trifluoro-3-(trifluoromethyl)butanamido)ethyl)-1H-benzo[d]imidazol-2-yl)methyl)-1-isopropyl-1H-pyrazole-5-carboxamide], the 50% inhibitory concentration (IC50) in test [1] (Homo sapiens, Keratinocyte) is < 0.05 µM; in test [2], > 0.1 µM.

`CC(C)n1nccc1C(=O)N[C@H](c1nc2cc([C@@H](NC(=O)CC3CC(F)(F)C3)C3CC3)ccc2[nH]1)C1CCC(F)(F)CC1` [Example 146, N—((S)-(5-((S)-Cyclopropyl(2-(3,3-difluorocyclobutyl)acetamido)methyl)-1H-benzo[d]imidazol-2-yl)(4,4-difluorocyclohexyl)methyl)-1-isopropyl-1H-pyrazole-5-carboxamide]: the IC50 in test [1] (Homo sapiens, Keratinocyte) is > 0.1 µM; in test [2], > 0.1 µM.

In the case of `C[C@@H](NC(=O)CCC(F)(F)F)c1ccc2[nH]c([C@@H](NC(=O)c3cn(CC4CC4)nn3)C3CCC(F)(F)CC3)nc2c1` [Example 10, 1-(Cyclopropylmethyl)-N—[(S)-(4,4-difluorocyclohexyl)-[6-[(1R)-1-(4,4,4-trifluorobutanoylamino)ethyl]-1H-benzimidazol-2-yl]methyl]triazole-4-carboxamide], the IC50 is > 0.1 µM in test [1] (Homo sapiens, Keratinocyte) and > 0.1 µM in test [2].

Regarding `Cc1nonc1C(=O)N[C@H](c1nc2ccc([C@H](NC(=O)CC3CC(F)(F)C3)C3CC3)cc2[nH]1)[C@@H]1CCCCO1` (relative stereo) [Example 248, N—((R*)-(6-((R)-Cyclopropyl(2-(3,3-difluorocyclobutyl)acetamido)methyl)-1H-benzo[d]imidazol-2-yl)((S*)-tetrahydro-2H-pyran-2-yl)methyl)-4-methyl-1,2,5-oxadiazole-3-carboxamide], the IC50 in test [1] (Homo sapiens, Keratinocyte) is > 0.1 µM; in test [2] it was 0.05 to 0.1 µM.

Turning to `CC(Cn1nncc1C(=O)N[C@H](c1nc2ccc([C@@H](C)NC(=O)CCC(F)(F)F)cc2[nH]1)C1CCC(F)(F)CC1)C(F)(F)F` (single isomer, unassigned) [Example 72, N—((S)-(4,4-Difluorocyclohexyl)(6-((R)-1-(4,4,4-trifluorobutanamido)ethyl)-1H-benzo[d]imidazol-2-yl)methyl)-1-((S*)-3,3,3-trifluoro-2-methylpropyl)-1H-1,2,3-triazole-5-carboxamide], the concentration for half-maximal inhibition (IC50) in test [1] and in test [2] was > 0.1 µM in each case.

Take `CC(C)n1nccc1C(=O)NC(COC(C)(C)C(F)(F)F)c1nc2ccc([C@H](NC(=O)CC3CC(F)(F)C3)C3CC3)cc2[nH]1` (single isomer, unassigned) [Example 162, N—((S*)-1-(6-((R)-Cyclopropyl(2-(3,3-difluorocyclobutyl)acetamido)methyl)-1H-benzo[d]imidazol-2-yl)-2-((1,1,1-trifluoro-2-methylpropan-2-yl)oxy)ethyl)-1-isopropyl-1H-pyrazole-5-carboxamide]: the IC50 in test [1] (Homo sapiens, Keratinocyte) was > 0.1 µM; in test [2] it was > 0.1 µM.

For `C[C@@H](NC(=O)CCC(F)(F)F)c1ccc2nc([C@@H](NC(=O)c3cnn(CCC(C)(C)C)n3)C3CCC(F)(F)CC3)[nH]c2c1` [Example 67, N—((S)-(4,4-Difluorocyclohexyl)(6-((R)-1-(4,4,4-trifluorobutanamido)ethyl)-1H-benzo[d]imidazol-2-yl)methyl)-2-(3,3-dimethylbutyl)-2H-1,2,3-triazole-4-carboxamide], the IC50 is > 0.1 µM in test [1] (Homo sapiens, Keratinocyte) and > 0.1 µM in test [2].

For `[2H]C([2H])([2H])C([2H])([2H])n1nccc1C(=O)N[C@@H](COC(C)(C)C(F)(F)F)c1nc2ccc([C@H](NC(=O)CC3CC(F)(F)C3)C3CC3)cc2[nH]1` [Example 76, N—((R)-1-(6-((R)-Cyclopropyl(2-(3,3-difluorocyclobutyl)acetamido)methyl)-1H-benzo[d]imidazol-2-yl)-2-((1,1,1-trifluoro-2-methylpropan-2-yl)oxy)ethyl)-1-(ethyl-d5)-1H-pyrazole-5-carboxamide], the half-inhibitory concentration (IC50) in test [1] (Homo sapiens, Keratinocyte) was < 0.05 µM; in test [2], < 0.05 µM.
